For data set [1], the target named is T1, human wildtype CFTR (Homo sapiens, UniProt P13569).
T1 construct: expressed in transfected cells; host or cells: Fischer rat thyroid (FRT) cells
The data set can be described thus: Whole-cell patch-clamp in CFTR-expressing FRT cells. Format: cell-based. The conditions noted are these: 0.5 μM; voltage-independent block. As to the method:
D. Patch-Clamp Analysis—Whole cell recordings were performed using FRT cells stably expressing human wildtype CFTR. The pipette solution contained 140 mM N-methyl D-glucamine chloride (NMDG-Cl), 5 mM EGTA, 1 mM MgCl2, 1 mM Tris-ATP, and 10 mM HEPES (pH 7.2), and the bath solution contained 140 mM N-methyl D-glucamine chloride, 1 mM CaCl2, 1 mM MgCl2, 10 mM glucose and 10 mM HEPES (pH 7.4). Experiments were performed at room temperature (22-25° C.). Pipettes were pulled from borosilicate glass and had resistances of 3-5 Mohm after fire polishing. […] After establishing the whole-cell configuration, CFTR was activated by adding forskolin and 3-isobutyl-1-methylxanthine (IBMX). Whole cell currents were elicited by applying hyperpolarizing and depolarizing voltage pulses from a holding potential of 0 mV to potentials between −100 mV and +100 mV in steps of 20 mV. Current was filtered at 5 kHz and digitized and analyzed using an AxoScope 10.0 system and a Digidata® 1440A AC/DC converter (Molecular Devices, Sunnyvale, Calif.). The single channel characteristics of CFTR were analyzed in the cell-attached configuration using fire-polished pipettes with a resistance of 10-15 Mohm. […] Single channel data were digitally filtered at 25 Hz, and analyzed using Clampfit 10.0 software (Axon Instruments).

Data set [2] concerns the target T1, human wildtype CFTR. The data set can be described thus: Short-circuit (apical membrane) chloride current in CFTR-expressing FRT cells, basolateral membrane permeabilized. Format: cell-based. As to the method: C. Short-Circuit Current Measurements—Snapwell inserts containing CFTR-expressing FRT cells (stably expressing human wildtype CFTR), T84 cells, or human bronchial epithelial cells were mounted in Ussing chambers. For FRT cells the hemichambers were filled with 5 mL of 75 mM NaCl and 75 mM Na gluconate (apical), and 150 mM NaCl (basolateral) (pH 7.3), and the basolateral membrane was permeabilized with 250 μg/mL amphotericin B. For bronchial epithelial cells and T84 cells, both hemichambers contained a Krebs-bicarbonate solution. Hemichambers were continuously bubbled with air (FRT cells) or 5% CO2 in air (bronchial and T84 cells) and maintained at 37° C. Short-circuit current was recorded continuously using a DVC-1000 voltage clamp (World Precision Instruments, Sarasota, Fla.) using Ag/AgCl electrodes and 3 M KCl agar bridges.
Short circuit current analysis was performed as described in Example 2. […] Measurements were taken in the presence of a transepithelial chloride gradient and following basolateral membrane permeabilization with amphotericin B so that measured current is a direct, quantitative measure of CFTR chloride conductance.

For data set [3], the system named is renal cysts in E13.5 embryonic kidneys. As to the kind of experiment: Embryonic kidney organ culture model of PKD (8-Br-cAMP-induced cysts). Format: cell-based, mouse. As to the method:
E. Embryonic Organ Culture Model of PKD—Mouse embryos were obtained at embryonic day 13.5 (E13.5). Metanephroi were dissected and placed on transparent Falcon […] diameter porous cell culture inserts as described (see, e.g., Sonawane et al., Chem. Biol. 15:718-728 (2008)). To the culture inserts was added DMEM/Ham's F-12 nutrient medium supplemented with 2 mM L-glutamine, 10 mM HEPES, 5 μg/mL insulin, 5 μg/mL transferrin, 2.8 nM selenium, 25 ng/ml prostaglandin E, 32 pg/ml T3, 250 U/ml penicillin and 250 μg/ml streptomycin. Kidneys were maintained in a 37° C. humidified CO2 incubator for up to 8 days. Culture medium containing 100 μM 8-Br-cAMP, with or without CFTR inhibitor, was replaced (in the lower chamber) every 12 h. In some studies CFTR inhibitor was added at 3 days after 8-Br-cAMP to test its efficacy in reversing pre-formed cysts. Kidneys were photographed using a Nikon inverted microscope (Nikon TE 2000-S) equipped with 2× objective lens, 520 nm bandpass filter, and high-resolution CCD camera. Percentage cyst area was calculated as total cyst area divided by total kidney area.
Kidneys were removed from day 13.5 embryonic mice and maintained in organ culture where they continue to grow. […] Multiple cysts did form and progressively enlarged when the culture medium was supplemented with the CFTR agonist 8-Br-cAMP (see FIG. 5A, left). […] In agreement with the transmission light micrographs of intact kidneys, PPQ-102 reduced cyst size.

Another data set relates to cellular cAMP production. The data set can be described thus: Cellular cAMP assayed in CHO-K1 cells, basal and forskolin-stimulated. The class given is cell-based. To be noted: 10 μM; 20 μM forskolin. As to the method:
FIG. 3A: Apical membrane current measured in CFTR-expressing FRT cells in the presence of a transepithelial chloride gradient and with amphotericin B permeabilization of the basolateral membrane. CFTR was activated by CPT-cAMP (chlorophenylthio-cAMP) (100 μM), with increasing concentrations of PPQ-102 added as shown. Left: Original recording. Right: Dose-response (S.E. n=4). FIG. 3B: Measurements as in FIG. 3A, but with apigenin (100 μM) or IBMX (100 μM) as agonists. The data are representative of 3 sets of experiments. FIG. 3C: Short-circuit current measured in T84 (left) and human bronchial airway epithelial cells (right). CFTR was maximally activated by 10 μM forskolin and 100 μM IBMX (‘forsk’). Current in the absence of inhibitor is indicated as ‘control.’ FIG. 3D: Calcium-activated chloride channels were activated by UTP (100 μM) in cystic fibrosis (CFTR-deficient) human bronchial epithelial cells, with PPQ-102 added as indicated. ENaC (epithelial sodium channel) was inhibited by amiloride (10 μM). FIG. 3E: Cellular cAMP assayed in CHO—K1 cells under basal conditions and after addition of 20 μM forskolin (S.E. n=4, differences with PPQ-102, not significant).

T1 sequence (P13569 whole entry): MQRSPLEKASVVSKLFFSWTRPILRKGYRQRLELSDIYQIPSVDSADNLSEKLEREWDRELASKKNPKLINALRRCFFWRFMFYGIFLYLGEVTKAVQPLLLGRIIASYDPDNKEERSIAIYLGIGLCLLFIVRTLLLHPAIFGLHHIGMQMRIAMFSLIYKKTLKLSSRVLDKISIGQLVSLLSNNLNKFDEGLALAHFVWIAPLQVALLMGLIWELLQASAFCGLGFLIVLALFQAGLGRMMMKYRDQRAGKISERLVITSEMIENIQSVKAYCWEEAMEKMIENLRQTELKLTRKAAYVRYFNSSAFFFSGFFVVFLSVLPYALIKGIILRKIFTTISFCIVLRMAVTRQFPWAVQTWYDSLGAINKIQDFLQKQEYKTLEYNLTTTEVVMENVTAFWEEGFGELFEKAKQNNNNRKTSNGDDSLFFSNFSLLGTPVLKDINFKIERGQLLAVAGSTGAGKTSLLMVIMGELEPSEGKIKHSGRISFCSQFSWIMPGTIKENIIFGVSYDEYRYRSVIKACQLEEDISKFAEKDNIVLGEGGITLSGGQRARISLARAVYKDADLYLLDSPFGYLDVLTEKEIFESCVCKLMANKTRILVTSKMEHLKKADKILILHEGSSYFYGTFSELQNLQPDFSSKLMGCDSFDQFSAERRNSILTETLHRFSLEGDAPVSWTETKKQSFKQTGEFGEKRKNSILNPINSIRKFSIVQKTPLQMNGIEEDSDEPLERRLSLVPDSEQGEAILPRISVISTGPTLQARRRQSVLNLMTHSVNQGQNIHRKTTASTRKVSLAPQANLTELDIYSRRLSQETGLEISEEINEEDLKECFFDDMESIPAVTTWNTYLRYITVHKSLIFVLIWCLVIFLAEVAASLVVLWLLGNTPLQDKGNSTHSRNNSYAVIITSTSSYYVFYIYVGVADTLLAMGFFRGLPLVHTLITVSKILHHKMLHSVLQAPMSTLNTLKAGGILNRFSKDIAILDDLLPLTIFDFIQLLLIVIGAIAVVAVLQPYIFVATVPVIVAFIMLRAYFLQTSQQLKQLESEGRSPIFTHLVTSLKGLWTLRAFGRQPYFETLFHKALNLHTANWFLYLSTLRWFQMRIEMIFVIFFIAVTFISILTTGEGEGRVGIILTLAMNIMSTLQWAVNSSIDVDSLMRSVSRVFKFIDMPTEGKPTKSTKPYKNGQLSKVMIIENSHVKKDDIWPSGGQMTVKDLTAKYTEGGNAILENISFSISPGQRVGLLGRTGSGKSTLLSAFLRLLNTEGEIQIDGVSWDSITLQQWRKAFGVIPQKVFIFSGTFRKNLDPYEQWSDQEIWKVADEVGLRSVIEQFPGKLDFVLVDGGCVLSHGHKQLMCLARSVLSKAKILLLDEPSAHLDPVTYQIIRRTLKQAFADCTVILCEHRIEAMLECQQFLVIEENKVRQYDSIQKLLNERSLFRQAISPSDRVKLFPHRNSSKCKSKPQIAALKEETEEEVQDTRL

For the compound `Cc1ccc(C2Nc3ccccc3-n3c(-c4ccccc4)c4c(=O)n(C)c(=O)n(C)c4c32)o1` (racemic) [PPQ-102, 7,9-Dimethyl-11-phenyl-6-(5-methylfuran-2-yl)-5,6-dihydro-pyrimido[4′,5′-3,4]pyrrolo[1,2-a]quinoxaline-8,10-(7H,9H)-dione], the “CFTR current-voltage relationship after addition” value on human wildtype CFTR [1] was “remained linear”. Moreover, the reversibility of inhibition result on human wildtype CFTR [2] (30 min incubation with 2 μM, then 10 min washout) is recorded as “complete restoration of CFTR chloride current”. The IC50 on human wildtype CFTR [2] (CFTR stimulated by CPT-cAMP, transepithelial chloride gradient, amphotericin B, read-out: IC50 for inhibition of CFTR chloride conductance) is around 90 nM. The “inhibition of CFTR at higher concentrations” value on human wildtype CFTR [2] (CPT-cAMP stimulation, higher concentrations) is listed as “approximately 100%”. Moreover, the “potency with apigenin or IBMX as agonist compared to CPT-cAMP” value on human wildtype CFTR [2] (apigenin (100 μM) or IBMX (100 μM) as agonists) was “mildly reduced”. Further, in data set [3] (2.5 μM removed after 3 days, 8-Br-cAMP continued), the “reversibility of cyst inhibition” value is on record as “reversible”. In addition, the “effect on pre-formed cysts” value in data set [3] (5 μM added at day 3 of 8-Br-cAMP, over 1 and 2 days) is listed as “reduction in cyst size”. Further, the “cysts at 2.5 and 5 μM” value in data set [3] (2.5 and 5 μM, 4 days in culture, 100 μM 8-Br-cAMP) is “near complete absence of cysts”. In data set [3] (in culture medium), the “effect on kidney growth” value is “did not affect kidney growth”. In the data set on cellular cAMP production, the “effect on basal or forskolin-stimulated cAMP production” value is recorded as “no significant effect”.

For the origin of these results see patent publication US8609661B2, “Pyrimido-pyrrolo-quinoxalinedione inhibitors of cystic fibrosis transmembrane conductance regulator protein and uses therefor” (The Regents of the University of California, priority 2009, dated 2013).
